Experimental data taken from US20160229835A1, “NOVEL PYRIDYLOXYACETYL TETRAHYDROISOQUINOLINE COMPOUNDS USEFUL AS NAMPT INHIBITORS” (ELI LILLY AND COMPANY, priority 2013, published 2016).

How the values were obtained:
[1] = tested on: Calu-6 (lung cancer) cells; test: Cell Viability Assay, Calu-6; type: cell-based; conditions: Homo sapiens, 72 hours
Protocol: The purpose of this assay is to measure the ability of a compound to reduce viability of different cancer cells dependent on the NAMPT-mediated NAD^+ formation in vitro. HCC1937 (breast cancer) cells are cultured in RPMI-1640 supplemented with 10% FBS. Calu-6 (lung cancer) cells and MCF-7 (breast cancer) cells are cultured in Minimum Essential Medium (MEM) (Gibco11095) supplemented with 1 mM sodium pyruvate (Gibco 11360), 1% Non-Essential Amino Acids Solution (100×; Gibco 11140) and 10% FBS. NCI-H1155 (lung cancer) cells are cultured in Dulbecco's Modified Eagle Medium (DMEM) (Gibco 11965) with 10% FBS. […] Cell viability is analyzed by using an assay kit (CYTOTOX-GLO™ Cytotoxicity Assay kit, Promega) according to the manufacturer's instructions as follows. […] Luminescence is measured using a Wallac Victor3 V 1420 Multilabel Counter (Perkin Elmer), referred to as dead cell luminescence. […] After the plate is incubated at room temperature for 15 minutes, luminescence is measured using the plate reader, referred to as total luminescence. Viable cell luminescence (CPS) is calculated by subtracting the dead cell luminescence from the total luminescence Inhibition of cell viability is calculated based on the equation as follows:
Inhibition (%)=(CPSnegative−CPSsample)/(CPSnegative−CPSpositive)*100 where CPS is the luminescence of viable cells.

NAMPT = NAMPT (Homo sapiens, UniProt P43490); test: NAMPT Biochemical Assay (NMN formation by LC-MS); conditions: relative IC50; 1.5 nM NAMPT, 2 hours at room temperature; read-out: IC50 (inhibition of NAMPT catalytic activity, NMN formation)
Sequence of NAMPT (P43490 whole entry): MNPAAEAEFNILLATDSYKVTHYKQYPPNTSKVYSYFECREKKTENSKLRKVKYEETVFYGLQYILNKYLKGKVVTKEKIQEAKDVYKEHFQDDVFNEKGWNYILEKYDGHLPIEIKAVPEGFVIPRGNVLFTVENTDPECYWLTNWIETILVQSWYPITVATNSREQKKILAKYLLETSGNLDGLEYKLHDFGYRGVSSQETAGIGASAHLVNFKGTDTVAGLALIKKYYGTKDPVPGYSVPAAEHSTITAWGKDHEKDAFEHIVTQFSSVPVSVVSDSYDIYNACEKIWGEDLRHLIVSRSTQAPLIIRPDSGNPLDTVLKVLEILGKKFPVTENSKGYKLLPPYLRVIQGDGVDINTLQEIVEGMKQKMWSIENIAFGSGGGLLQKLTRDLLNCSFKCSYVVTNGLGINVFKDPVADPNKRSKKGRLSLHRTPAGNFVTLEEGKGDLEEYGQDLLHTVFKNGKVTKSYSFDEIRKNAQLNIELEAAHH
Protocol: The purpose of this assay is to measure the ability of a compound to inhibit NAMPT catalytic activity. Reaction mixtures (25 μL) containing 50 mM HEPES at pH 7.5, 50 mM NaCl, 1 mM DTT, 0.005% TRITON® X-100, 1.5 μM phosphoribosyl-pyrophosphate, 0.5 μM nicotinamide (NAM), 1.5 nM NAMPT, 2.5 mM ATP, 1.25 mM MgCl2, 4% (v/v) DMSO and compounds after a ten-point series dilution from either 1 μM to 50 pM or 0.1 μM to 5 pM (final) are prepared. The reaction mixtures are incubated at room temperature for 2 hours. The reaction is terminated by the addition of ACN (25 μL) containing nicotinamide mononucleotide-d4 (NMN-d4) as an internal standard (final concentration: 5 μM). […] A positive control group (enzyme and DMSO, but no compound) is used to measure minimum inhibition (0%) of NMN formation. Percent inhibition of compound treated groups is calculated relative to the minimum inhibition group. The relative IC50 for each compound is calculated from a dose response study and is the concentration necessary to achieve 50% inhibition at this time point using the above disclosed ranges of 1 μM to 50 pM (final). The data generated from the dose-response studies is fit to a four-parameter logistic equation using ACTIVITYBASE 4.0 Equation 205.

A2780 cells = test: A2780 Proliferation Assay ±NAM (Nicotinamide); type: cell-based; conditions: Homo sapiens, A2780, 72 h, 10 mM nicotinamide added to the growth medium, read-out: IC50 (proliferation of A2780 cells with 10 mM nicotinamide)
Protocol: The purpose of this assay is to measure the ability of a compound to inhibit proliferation of A2780 cells (the NCI-DCTD Tumor repository) dependent on the NAMPT-mediated NAD^+ formation in the presence or absence of higher concentrations of NAM (10 mM) in vitro. The A2780 cell proliferation assay uses assay-ready frozen cells. To prepare assay-ready frozen A2780 cells, A2780 cells, an ovarian cancer cell line, are cultured in growth media containing RPMI 1640 (Gibco 30-2001) supplemented with 10% FBS, in T-150 flasks for 3-4 days. Cells are then treated with 4 mL of 0.25% (v/v) trypsin for 1 minute (Hyclone SH30042). Trypsin-treated cells are then diluted with 10 mL of growth media, and the cell slurry is gently mixed and then decanted to a centrifuge tube. Cells are counted and then pelleted by centrifugation at 1400 rpm for 5 minutes. After centrifugation the supernatant is removed and the cell pellets are re-suspended in GIBCO® RECOVERY™ Cell Culture Freezing Medium (Invitrogen 12648-010) at 2-5×10^6 cells/mL and then aliquoted at 1 mL volumes into cryovials. Cryovials are stored initially at −80° C. for 16 hours, and then transferred to liquid nitrogen for long term storage.
One day before the planned initiation of compound treatment portion of the assay, one vial of assay ready frozen cells is thawed, and the cells are washed with 50 mL of growth medium. Cells are counted and then diluted to 2.8×10^4 cells/mL and then plated at a rate of 2500 cells/well (90 μL per well) to BD Poly-D-Lysine, 96 well black plates (BD Biocoat 35-4640). Plates are then covered and incubated overnight under 5% CO2 at 37° C. The next day in a separate plate (V bottom Nunc 249946), a ten-point compound dilution series for each compound is prepared in growth media containing 2% DMSO (v/v, 0.2% final) with or without 100 mM NAM (10 mM final). Then 10 μL of compounds after a ten-point series dilution from either 2 or 0.1 μM (depending potency of each compound) to 50 pM or 5 pM (final) are added to the wells of the cell plates. Cell plates are covered and incubated for 72 hours under 5% CO2 at 37° C.
On the day of the viability assessment, one vial of GF-AFC substrate (CELL TITER-FLUOR™ Cell Viability Assay Kit, Promega G6081) is vortexed and the substrate is transferred to one vial of thawed CELL TITER-FLUOR™ Assay Buffer. The resulting CELL TITER-FLUOR™ reagent is then vortexed well to thoroughly dissolve the substrate. The CELL TITER-FLUOR™ reagent is then diluted (1:2) in growth medium and 50 μL of diluted CELL TITER-FLUOR™ reagent is added to each well of the cell plate. The cell plate is covered and incubated under 5% CO2 at 37° C. for 1-3 hours. Finally the cell plates are removed from the incubator and the well fluorescence is measured on an Envision® Multilabel Reader (Perkin Elmer, λeX 355/λem 495). Fluorescence from compound treated wells is compared to the no cell and no compound treatment control wells to calculate percent inhibition. The percent inhibition and ten-point compound concentration data is fit to a four-parameter logistic equation using ACTIVITYBASE 4.0 Equation 205. Each compound is tested 2-4 times in this assay.

IC50 [1] [nM]	IC50 (NAMPT) [nM]	IC50 (A2780 cells) [nM]	Compound
49 ± 8	3.1	> 100	CC(C)(O)CS(=O)(=O)Nc1ccc2c(c1)CCN(C(=O)COc1cccnc1)C2 [Example 1, 2-Hydroxy-2-methyl-N-[2-[2-(3-pyridyloxy)acetyl]-3,4-dihydro-1H-isoquinolin-6-yl]propane-1-sulfonamide]
121 ± 29	1.1	> 100	COCCS(=O)(=O)Nc1ccc2c(c1)CCN(C(=O)COc1cccnc1)C2 [Example 2, 2-Methoxy-N-[2-[2-(3-pyridyloxy)acetyl]-3,4-dihydro-1H-isoquinolin-6-yl]ethanesulfonamide]
